Experimental data from US7288555B2 (priority 2001, dated 2007).

Experiments:
[1] = system: vine downy mildew (Plasmopara viticola); conditions: in vivo
[2] = system: potato blight (Phytophthora infestans); assay type: in vivo; conditions: Solanum tuberosum Bintje, infection 48 h after treatment, read after 6 days, 3 repeats, confidence interval in brackets; for ED50 (confidence interval): effective dose providing 50% control; for ED70 (confidence interval): effective dose providing 70% control; for ED90 (confidence interval): effective dose providing 90% control

Compound | ED50 (confidence interval) [1] | ED70 (confidence interval) [1] | ED50 (confidence interval) [2] | ED70 (confidence interval) [2] | ED90 (confidence interval) [2]
O=C(NCc1ncc(C(F)(F)F)cc1Cl)c1c(Cl)cccc1Cl [Compound A, 2,6-dichloro-N-{[3-chloro-5-(trifluoromethyl)-2-pyridinyl]methyl}benzamide] | 6.6 (4-10.9) mg/l | 12.5 (8-19.6) mg/l | 19.9 (12-33) mg/l | 43.5 (24.5-77.2) mg/l | 151.2 (61.5-371.8) mg/l
Cc1ccc(C(C)NC(=O)[C@@H](NC(=O)OC(C)C)C(C)C)cc1 (stereo partly shown) [Compound B, iprovalicarb] | 7.3 (4.9-11) mg/l | 17.5 (11.8-25.9) mg/l | 27.8 (18.3-42.2) mg/l | 69.3 (43.7-109.9) mg/l | 296.6 (136.2-646) mg/l
